Results: patent US8455450B2, “Methods for obtaining a therapeutically effective amount of hematopoietic precursor cells and long term engraftment thereof” (Biokine Therapeutics Ltd., priority 2006, dated 2013)
Bridge positions count the residues as written; N and C are the ends. Square brackets hold non-standard residues; d marks the D form. Peptide text beside a SMILES is read from it. * marks the point of attachment. 2Nal = N[C@@H](Cc1ccc2ccccc2c1)C(=O)O; Benzoyl(4-F) = O=C(c1ccc(F)cc1)*; Cit = NC(=O)NCCC[C@H](N)C(=O)O

Tests used:
progenitor cells = assay: In vitro production of colonies, colony-forming cell assay without stromal cells; type: cell-based; details: no stromal cells; 4F-benzoyl-TN14003 10-500 ng/ml, G-CSF 10-500 ng/ml
Procedure: In order to evaluate the number of progenitor cells, a colony-forming cell assay was used. Burst forming units erythrocyte (BFU-E), colony forming units granulocyte-macrophage (CFU-GM), colony forming units megakaryocytes (CFU-M), and colony forming units granulocyte-erythrocyte-monocyte-macrophage (CFU-GEMM) were assayed by plating the cells (10^5/ml) in Iscove's-modified Dulbecco's Medium (IMDM) containing 1% methylcellulose, 15% FBS, 1% bovine serum albumin (BSA), and 4F-benzoyl-TN14003 by itself (10-500 ng/ml) or in combination with G-CSF (in concentrations of 10-500 ng/ml).

neutrophils = assay: Chemotherapy (cyclophosphamide)-induced neutropenia model, neutrophil counts; type: in vivo, C57BL/6 mice; details: cyclophosphamide 150 + 100 mg/kg i.p. days 1 and 4, treatment s.c. days 4-7 (4F-benzoyl-TN14003 5 mg/kg)
Procedure: In the chemotherapy-induced neutropenia model, a protocol as previously described was followed (Zuluaga et al., 2006). Briefly, Female C57BL/6 mice were injected intraperitoneally with 150 and 100 mg/kg of Cyclophosphamide (CPM) on days 1 and 4, respectively. Following the treatment with CPM, mice were injected s.c. with either G-CSF […], 4F-benzoyl-TN14003 (5 mg/kg) or their combination on day 4, 5, 6 and 7. Blood samples were drawn from each mouse on day 0 and two hours after G-CSF/4F-benzoyl-TN14003 injections on days 4, 5, 6 and 7. Lysis of the erythrocyte population in the blood samples was done using ACK lysis buffer. The number of neutrophils was determined by FACS after staining the cells with anti-PE-Gr-1 antibody.
Neutropenia was induced in female C57BL/6 mice by administration of a total dose of 250 mg/kg cyclophosphamide (CPM) in two 0.5 mL intraperitoneal injections scheduled at day 1 (150 mg/kg) and day 4 (100 mg/kg). The CPM protocol caused 4 days of neutropenia (from day 4 to day 8). When mice were treated with the combination of G-CSF and 4F-benzoyl-TN14003, a significant number of neutrophils was detected in the blood on day 6, as compared to mice that were treated with CPM only or with G-CSF or 4F-benzoyl-TN14003 alone (FIG. 12).

PC3-CXCR4.5 cells = assay: MIP3α secretion by CXCR4-overexpressing PC3-CXCR4.5 cells (ELISA); type: cell-based; details: transfection with CXCR4-specific or control siRNA
Source text: A PC3 prostate cell line that overexpresses high levels of CXCR4 was generated. […] FIG. 1A presents FACS histograms of PC3 cells (left panel) and a single cell clone with stable overexpression of CXCR4, GFP and luc genes (PC3-CXCR4.5, right panel) that were stained for the control (IgG2a-PE, full histograms) and CXCR4 (IgG2a-12G5, empty histograms) antibodies.
In this example, regulation of the chemokine MIP3α (macrophage inflammatory protein 3α) was examined. […] In FIG. 1B, PC3 (left panel) and PC3-CXCR4.5 (right panel) cells were stimulated with the indicated concentrations of CXCL12 for 48 hours and MIP3α secretion was assessed by ELISA. The results represent the average of triplicates±STDEV.
The effects of the CXCR4 antagonist AMD3100 and of 4F-benzoyl-TN14003 (4FB-TN14003), hitherto known as a CXCR4 antagonist, on MIP3α secretion were further tested. […] In FIG. 10, CXCR4 signaling in PC3 (left panel) and PC3-CXCR4.5 (right panel) cells was inhibited with anti-CXCL12 antibodies (αCXCL12) and Pertussis toxin (PTX) treatments alone or in combination with CXCL12, as indicated. Secretion of MIP3α was assessed by ELISA. The results represent the average of triplicates±STDEV.
Spontaneous secretion of MIP3α is CXCL12 and PTX independent in these cells.

proerythroblast cells = assay: Proerythroblasts in blood, FACS with anti-Ter-119; type: in vivo, C57BL/6 mice; details: 5 mg/kg s.c.; 2 hours
Procedure: To assess the number of cells in blood and BM, and to distinguish between the different populations, FACScan flow cytometer was used. Cells derived from these organs were gated according to forward scatter and side scatter to exclude dead cells and to determine granulocytes, mononuclear cells and activated macrophage populations. The number of each cell population was counted. Cells were also stained in 0.1 ml FACS buffer with fluorescence antibodies directed against Gr-1, CD3, mac-1, F4/80, Nk1.1, B220 and Ter-119 molecules or matched isotype controls (all from eBiosience, San Diego, Calif.) for 30 min and washed with FACS buffer.
C57BL/6 mice were s.c. injected with 5 mg/kg 4F-benzoyl-TN14003. 2 hours later blood was obtained and the number of proerythroblast cells was evaluated by FACS following staining with anti-Ter-119 (FITC). Data are expressed as average±SD of five mice/group.

white-blood-cells (WBC) = type: in vivo
[1] = system: BM cells on stromal cells (14F1.1); assay: In vitro production of progenitors and mature cells from BM cells seeded on stromal cells (14F1.1); type: cell-based
Procedure: More specifically, the number of colonies was assayed by collecting the cells (10^5/plate) 4 days after treatment form the treated and control (untreated) plates, and evaluating the number of progenitor cells using a colony-forming cell assay. Burst forming units erythrocyte (BFU-E), colony forming units granulocyte-macrophage (CFU-GM), colony forming units megakaryocytes (CFU-M), and colony forming units granulocyte-erythrocyte-monocyte-macrophage (CFU-GEMM) were assayed by plating the cells in Iscove's-modified Dulbecco's Medium (IMDM) containing 1% methylcellulose, 15% FBS, 1% bovine serum albumin (BSA), 3 U/mL rh EPO, […] 2-mercaptoethanol, 2 mM L-glutamine, 50 ng/mL rmSCF, 10 ng/mL rmIL-3, […] rh Insulin, 10 ng/mL rh IL-6, and […] Human Transferrin (Methocult GF M3434; StemCell Technologies Inc.). The cultures were incubated at 37° C. in a humidified atmosphere containing 5% CO2. Seven days later, typical colonies were visually scored by morphologic criteria using a light microscope and the frequency of CFU was calculated. Staining colonies with benzidine dihydrochloride (Sigma, Israel) was used to localize hemoglobin-containing cells.

[2] = 5 mg/kg s.c. 4F-benzoyl-TN14003 or AMD3100, 2 h, G-CSF 2.5 μg s.c. twice a day for 4 days, combination 18 h after last G-CSF
[3] = peak at 10 mg/kg s.c., 2 hours post-injection

## N=C(N)NCCC[C@H](NC(=O)[C@@H]1CSSC[C@H](NC(=O)[C@H](Cc2ccc3ccccc3c2)NC(=O)[C@H](CCCNC(=N)N)NC(=O)[C@H](CCCNC(=N)N)NC(=O)c2ccc(F)cc2)C(=O)N[C@@H](Cc2ccc(O)cc2)C(=O)N[C@@H](CCCNC(N)=O)C(=O)N[C@@H](CCCCN)C(=O)N[C@H](CCCCN)C(=O)N2CCC[C@H]2C(=O)N[C@@H](Cc2ccc(O)cc2)C(=O)N[C@@H](CCCNC(=N)N)C(=O)N[C@@H](CCCNC(N)=O)C(=O)N1)C(N)=O [4F-benzoyl-TN14003, 4F-benzoly-Arg-Arg-Nal-Cys-Tyr-Cit-Lys-DLys-Pro-Tyr-Arg-Cit-Cys-Arg-NH2] ({Benzoyl(4-F)}-RR[2Nal]CY[Cit]K[dK]PYR[Cit]CR-NH2; disulfide 4-13)
Progenitor cells
  production of colonies in vitro: did not stimulate the production of colonies in vitro
neutrophils; day 6
  number of neutrophils in blood as % of the initial number in normal (untreated) mice: only a mild effect
neutrophils; day 7
  number of neutrophils in blood as % of the initial number: not sufficient to elevate neutrophil counts to their normal level
PC3-CXCR4.5 cells
  CXCR4 dependence of induced MIP3α secretion: CXCR4 dependent
Proerythroblast cells
  number of proerythroblasts (Ter119) in blood, fold elevation from the control level: 3.2 fold
white-blood-cells (WBC); 5 mg/kg s.c.
  MNCs in the blood, full return to the baseline level: 4 h
  activated macrophages in the blood, return to the baseline level: 24 h
  activated macrophages in the blood, time of peak: 1 h
  neutrophils in the blood, decrease to the baseline level: 24 h
  neutrophils in the blood, time of peak: 1 to 2 h
white-blood-cells (WBC); [2]
  Activated macrophages, fold elevation of cell counts from control: 4.2 fold
  MNC, fold elevation of cell counts from control: 2.3 fold
  Neutrophils, fold elevation of cell counts from control: 6.1 fold
white-blood-cells (WBC); 5 mg/kg s.c., after 30 minutes
  mononuclear cells (MNCs) in the blood, fold elevation from control: 2 fold
white-blood-cells (WBC); 5 mg/kg s.c., peak after 1 to 2 hours
  number of neutrophils in the blood, fold change from control at peak: > 12 fold
white-blood-cells (WBC); dose 5 mg/kg s.c., 2 hours post-injection
  number of WBC in blood, fold elevation compared to control mice (peak of dose response): 2.5 fold
white-blood-cells (WBC); intact mice, 5 mg/kg s.c.
  number of white blood cells within the BM: no changes were observed
white-blood-cells (WBC); [3]
  MNCs in blood, fold change from control: 3.5 fold
  absolute number of neutrophils in blood, fold change compared to control: ~8 fold
  activated macrophages in blood, fold change from control: 6 fold
white-blood-cells (WBC); single dose 5 mg/kg s.c.
  total WBC in blood, full return to the baseline level: 24 h
white-blood-cells (WBC); single dose 5 mg/kg s.c., after 30 minutes
  number of total WBC in blood, fold change from control: 2 fold
white-blood-cells (WBC); staining CD3, B220, Mac-1
  mobilization of T cells, B cells and monocytes (FACS): had an effect on the mobilization of T cells, B cells and monocytes
white-blood-cells (WBC); staining Nk1.1
  mobilization of NK cells (FACS): had no effect on the mobilization of NK cells
[1]; representative experiment, FIG. 17E
  differentiation and proliferation of BM cells on stromal cells (micrographs): differentiating and proliferating
[1]; stromal cells (14F1.1) seeded with BM cells, 4F-benzoyl-TN14003 10 microgram/ml, G-CSF 100 ng/ml, 4 days
  production of GR-1 and Ter119 positive cells and progenitors: stimulated the production of GR-1 and Ter119 positive cells as well as progenitors
